Data on 18 compounds can be found in publication PMC10330904 (Toxicology and applied pharmacology, 2023).

For data set [1], the system named is Acetylcholinesterase (AChE) (biochemical). To be noted: cited from earlier work; for IC50: read-out: tox21-ache-p5 (IC50).
Data set [2] concerns the target Acetylcholinesterase (AChE) (with human microsomes). As to conditions: read-out: tox21-ms-ache-p2 (IC50); cited from earlier work.
Data set [3] has as its system cell viability counter screens.

SMILES strings stand for the structures.

One may read the IC50 as the point on the concentration scale where inhibition reaches its midpoint. Turning to `CCOP(=S)(Oc1ccc([N+](=O)[O-])cc1)c1ccccc1` (centres unmarked), the “tox21-ache-p5 (IC50)” value in data set [1] was “inactive”. The concentration for half-maximal inhibition (IC50) in data set [2] is 2 µM. In the case of `CCOP(=S)(OCC)SCn1nnc2ccccc2c1=O` [Azinphos-ethyl], the IC50 was 35.5 µM in data set [1] and 0.25 µM in data set [2]. Take `CCOP(=S)(OCC)Oc1nc(Cl)c(Cl)cc1Cl` [Chlorpyrifos]: the figures for the half-maximal inhibitory concentration (IC50) in data set [1] and in data set [2] were 79.4 µM and 0.25 µM, respectively.

For `CCOP(=S)(OCC)Oc1ccc2c(C)c(Cl)c(=O)oc2c1` [Coumaphos], the half-inhibitory concentration (IC50) was 53.7 µM in data set [1] and 1.07 µM in data set [2]. `CCOP(=S)(OCC)SC(CCl)N1C(=O)c2ccccc2C1=O` (centres unmarked) [Dialifor]: the IC50 is 63.1 µM in data set [1] and 1.41 µM in data set [2].

As for `COP(N)(=S)Oc1ccccc1C(=O)OC(C)C` (centres unmarked) [Isocarbophos], in data set [1], the “tox21-ache-p5 (IC50)” value is “inactive”. In data set [2], the IC50 was 2.82 µM. As to `CCOP(=S)(OCC)Oc1ccc([N+](=O)[O-])cc1` [Parathion], the values for the IC50 in data set [1] and in data set [2] were 24.6 µM and 0.74 µM, respectively.

Consider `CCOP(=S)(OCC)SCn1c(=O)oc2cc(Cl)ccc21` [Phosalone], for which the “tox21-ache-p5 (IC50)” value in data set [1] is “inactive”. Further, the half-inhibitory concentration (IC50) in data set [2] is 5.89 µM. `CCOP(=S)(OCC)O/N=C(\C#N)c1ccccc1` [Phoxim]: the 50% inhibitory concentration (IC50) is 56.2 µM in data set [1] and 1.66 µM in data set [2]. In the case of `CCOP(=S)(OCC)Oc1cnc2ccccc2n1` [Quinalphos], the results for the IC50 in data set [1] and in data set [2] were 79.4 µM and 1 µM, respectively. `CCOP(=S)(OCC)SCSC(C)(C)C` [Terbufos]: the “tox21-ache-p5 (IC50)” value in data set [1] was “inactive”. In addition, in data set [2], the IC50 is 47.9 µM. On to `Oc1c(Cl)cc(Cl)cc1Sc1cc(Cl)cc(Cl)c1O` [bithionol], for which the “viability assay hit rate” value in data set [3] is listed as 98.78%. With `[H]/N=C(\N/C(=N/[H])NCCCCCCNC(=N)NC(=N)Nc1ccc(Cl)cc1)Nc1ccc(Cl)cc1` [chlorhexidine], the “viability assay hit rate” value in data set [3] came to 97.56%.

`O=C1C(Cl)=C(Cl)C(=O)c2ccccc21` [dichlone]: the “viability assay hit rate” value in data set [3] is reported as 97.56%. Turning to `Oc1c(Cl)cc(Cl)c(Cl)c1Cc1c(O)c(Cl)cc(Cl)c1Cl` [hexachlorophene], in data set [3], the “viability assay hit rate” value was 97.56%. For `CC1=CC(=O)c2ccccc2C1=O` [menadione], the “viability assay hit rate” value in data set [3] was 97.56%. As to `Cc1cc(C(C)(C)CC(C)(C)C)ccc1OCCOCC[N+](C)(C)Cc1ccccc1.[Cl-]` [methylbenzethonium chloride], the “viability assay hit rate” value in data set [3] was found to be 97.56%. For the compound `Oc1cc(Cl)ccc1Oc1ccc(Cl)cc1Cl` [triclosan], the “viability assay hit rate” value in data set [3] is given as 97.56%.
